Data on 79 sequences can be found in the OligoGym collection.

The target in the data set is HSD17B13. Particulars: ASO, HepaRG.

After the bases stand the sugars from the 5' end (letter, count) and the backbone: PS all phosphorothioate, else s phosphorothioate and o phosphodiester by linkage. Methylation of C is not given here. e = 2'-O-(2-methoxyethyl) (MOE); k = constrained ethyl (cEt); d = 2'-deoxy (DNA); m = 2'-O-methyl

In the case of GCTGAGAGTTATCTGG (sugars k3 d10 k3, PS), the target mRNA inhibition (1 µM) stood at 65%. AGCCAAACTGCTACTG (sugars k3 d10 k3, PS) gave a target mRNA inhibition (1 µM) of 78%. GTCTTGGTAATCTCTT (sugars k3 d10 k3, PS): the target mRNA inhibition (1 µM) was found to be 37%. The same measure, in the same setting: then CAAGCTACCTCCAAAT (sugars k3 d10 k3, PS), with 25%; and TATAGCTAAGTATACT (sugars k3 d10 k3, PS), with 23%. For the sequence ACACTAATCTCAGTAC (sugars k3 d10 k3, PS), the target mRNA inhibition (1 µM) stood at 6%. Under “1 µM”, TTGAGATAAAGCTGCC (sugars k3 d10 k3, PS) displayed a target mRNA inhibition of 49%.

Where the note is “1 µM”, CTAAAGGAGATCTGAG (sugars k3 d10 k3, PS) came in with a target mRNA inhibition of 47%.

In turn, AATACAGGATAGAGCA (sugars k3 d10 k3, PS) gave a target mRNA inhibition (1 µM) of 0%. Regarding “CATAATAATAGCTCTA (sugars kkdddddddddkekek, PS)”, the target mRNA inhibition (1 µM) was 13%. Sequence TAACTGAGCTAGACAA (sugars k3 d10 k3, PS) showed a target mRNA inhibition (1 µM) of 53%.

“AAAATAGAGTCGGTCA (sugars kkdddddddddkekek, PS)” displayed a target mRNA inhibition (1 µM) of 53%. Sequence “TTGAUCTCTTAGCTGT (sugars k3 d1 m1 d8 k3, PS)” displayed a target mRNA inhibition (1 µM) of 50%. Under “1 µM”, CCACTGGATGGATTTC (sugars k3 d10 k3, PS) displayed a target mRNA inhibition of 68%. For the setting “1 µM”, AGCAAGCCAACAGAGA (sugars k3 d10 k3, PS) had a target mRNA inhibition of 40%. For the sequence AAATTGGCCTCCTGGG (sugars k3 d10 k3, PS), the target mRNA inhibition (1 µM) stood at 44%. As to TGTAATTGGCTCTTGA (sugars k3 d10 k3, PS), the target mRNA inhibition (1 µM) worked out at 0%. In the case of “AGTGCATCTTAAGATA (sugars k3 d1 m1 d8 k3, PS)”, the target mRNA inhibition (1 µM) amounted to 17%. “AGCAGAATTGTGAACG (sugars k3 d1 m1 d8 k3, PS)”: under “1 µM”, the target mRNA inhibition came out at 51%. For the setting “1 µM”, “GAACAGTCTTAAACCT (sugars k3 d9 k3 e1, PS)” came in with a target mRNA inhibition of 64%. As to “GTAAGTATTCCATCTA (sugars kkdddddddddkekek, PS)”, the target mRNA inhibition (1 µM) turned out to be 53%. As for “GATTAGTCTTGATGTA (sugars k3 d9 k3 e1, PS)”, the target mRNA inhibition (1 µM) turned out to be 48%. Under “1 µM”, CTAGTGGTAATGGTAA (sugars k3 d10 k3, PS) displayed a target mRNA inhibition of 62%. The sequence TAAATCAGGCAGTCAT (sugars k3 d10 k3, PS) came in with a target mRNA inhibition (1 µM) of 35%. Same read-out and setting: then “GATGTAGTGGGAGTCG (sugars kkdddddddddkekek, PS)”, with 38%; and “ATATTCTGTGGCATGG (sugars k3 d9 k3 e1, PS)”, with 58%. The sequence AACTCTATTGATTGGC (sugars k3 d10 k3, PS) displayed a target mRNA inhibition (1 µM) of 72%.

In the case of ACTGTCCCAGCATTAT (sugars k3 d10 k3, PS), the target mRNA inhibition (1 µM) is 40%. “TGATUGAGTTCTCCAC (sugars k3 d1 m1 d8 k3, PS)” came in with a target mRNA inhibition (1 µM) of 4%. The sequence GTATTCCATCTATCAG (sugars k3 d10 k3, PS) gave a target mRNA inhibition (1 µM) of 52%.

GTTTATCAGTAAAGTG (sugars k3 d10 k3, PS): the target mRNA inhibition (1 µM) was 64%. The sequence GGCAGTAAAGTGCTAA (sugars k3 d10 k3, PS) gave a target mRNA inhibition (1 µM) of 62%. In turn, “TGTAATAGCCAGTACA (sugars kkdddddddddkekek, PS)” yielded a target mRNA inhibition (1 µM) of 45%. Take “TAGTGGACTTCATTAG (sugars kkdddddddddkekek, PS)”: the target mRNA inhibition (1 µM) was 41%. Where the note is “1 µM”, “TTGAGATAAAGCTGCC (sugars k3 d1 m1 d8 k3, PS)” displayed a target mRNA inhibition of 51%. Take TCAAAGTCAGTATCCC (sugars k3 d10 k3, PS): the target mRNA inhibition reads like this: (0.02 µM) 5%; (0.078 µM) 19%; (0.313 µM) 48%; (1 µM) 79%; (1.25 µM) 75%; (5 µM) 88%. In the case of TAGCTAATGTATGAGG (sugars k3 d10 k3, PS), the target mRNA inhibition (1 µM) was determined as 48%.

Sequence AGCGGCAAATTTGCTG (sugars k3 d10 k3, PS) had a target mRNA inhibition (1 µM) of 5%.

The sequence TGGCTTAATGTTCAGT (sugars k3 d10 k3, PS) displayed a target mRNA inhibition (1 µM) of 50%. Regarding CTAAGTTATTATCCCC (sugars k3 d10 k3, PS), the target mRNA inhibition (0.02 µM) stood at 16%; the target mRNA inhibition (0.078 µM) was found to be 22%; the target mRNA inhibition (0.313 µM) is 48%; the target mRNA inhibition (1 µM) was determined as 70%; the target mRNA inhibition (1.25 µM) stood at 72%; the target mRNA inhibition (5 µM) came out at 95%. On to “AATAGCCAGTACAGTT (sugars k3 d1 m1 d8 k3, PS)”, for which, for the setting “1 µM”, the target mRNA inhibition is 66%. GGCAGTTGAAGTTGAT (sugars k3 d10 k3, PS) returned a target mRNA inhibition (1 µM) of 46%.

In turn, “TATGTGATTGAGTTCT (sugars k3 d9 k3 e1, PS)” had a target mRNA inhibition (1 µM) of 43%. As to “GAAACTTGATCTCTTA (sugars kkdddddddddkekek, PS)”, the target mRNA inhibition (1 µM) came to 54%.

Where the note is “1 µM”, GTGTAGTTTGGTGGGC (sugars k3 d10 k3, PS) gave a target mRNA inhibition of 33%. Same read-out and setting: then ATAATTACAACCTGGT (sugars k3 d10 k3, PS), with 44%; and TCTTTAGTCAACAGTA (sugars k3 d10 k3, PS), with 68%.

In the case of ATAGTCCATGCAAAAG (sugars k3 d10 k3, PS), the target mRNA inhibition (1 µM) came out at 43%. The sequence “TTTAAAATAGAGTCGG (sugars k3 d1 m1 d8 k3, PS)” came in with a target mRNA inhibition (1 µM) of 77%. For GCAATGAGATTACCCC (sugars k3 d10 k3, PS), the target mRNA inhibition stood at 3% (0.02 µM); 26% (0.078 µM); 58% (0.313 µM); 83% (1 µM); 83% (1.25 µM); 89% (5 µM). Take TTCAGTCCTTGTGTAG (sugars k3 d10 k3, PS): under “1 µM”, the target mRNA inhibition is 45%.

The sequence GAACAATATGGGATGA (sugars k3 d10 k3, PS) gave a target mRNA inhibition (1 µM) of 26%. The same measure, in the same setting: then AAGCTTTGCAGCATTG (sugars k3 d10 k3, PS), with 59%; and CATAATCTTGTGCTTG (sugars k3 d10 k3, PS), with 37%; and TTTCAGATCCCGTTCT (sugars k3 d10 k3, PS), with 45%. Sequence TTTAACTACCCTCACA (sugars k3 d10 k3, PS) registered a target mRNA inhibition (1 µM) of 0%.

CGCCTAAAGGAGATCT (sugars k3 d10 k3, PS) registered a target mRNA inhibition (1 µM) of 59%.

The sequence ACAATCAGGAGTTGCA (sugars k3 d10 k3, PS) returned a target mRNA inhibition (1 µM) of 62%. For CAGCCTTAGAGTGAAT (sugars k3 d10 k3, PS), the target mRNA inhibition came to 6% (0.02 µM); 23% (0.078 µM); 36% (0.313 µM); 82% (1 µM); 73% (1.25 µM); 83% (5 µM). TGTACCAAACTTGCCC (sugars k3 d10 k3, PS) showed a target mRNA inhibition (1 µM) of 53%. ATAACCATAGGACATG (sugars k3 d10 k3, PS): the target mRNA inhibition came to 37% (0.02 µM); 38% (0.078 µM); 58% (0.313 µM); 70% (1 µM); 84% (1.25 µM); 92% (5 µM). For the setting “1 µM”, TACCAAGAGGGTTTTT (sugars k3 d10 k3, PS) came in with a target mRNA inhibition of 17%.

For AAACCTTGAATGAGTG (sugars k3 d10 k3, PS), the target mRNA inhibition (1 µM) was 37%. On to CACCGTTTTGGGCTAA (sugars k3 d10 k3, PS), for which the target mRNA inhibition reads like this: (0.02 µM) 13%; (0.078 µM) 23%; (0.313 µM) 53%; (1 µM) 85%; (1.25 µM) 83%; (5 µM) 94%.

Sequence “TTGAGTAGTGTAAGCT (sugars k3 d1 m1 d8 k3, PS)” gave a target mRNA inhibition (1 µM) of 35%. Regarding “TTGATATTCTGTGGCA (sugars k3 d9 k3 e1, PS)”, the target mRNA inhibition came out at 0% (0.02 µM); 0% (0.078 µM); 25% (0.313 µM); 76% (1 µM); 51% (1.25 µM); 55% (5 µM).

In the case of AGGCTAAAATGGTCAT (sugars k3 d10 k3, PS), the target mRNA inhibition (1 µM) amounted to 36%. Regarding CTTAGTGTAGAATTGT (sugars k3 d10 k3, PS), for the setting “1 µM”, the target mRNA inhibition is 56%. Same read-out and setting: then GTATAGCTGCATTTCT (sugars k3 d10 k3, PS), with 35%. For the sequence CCACATACGCATGCGC (sugars k3 d10 k3, PS), the target mRNA inhibition reads like this: (0.02 µM) 3%; (0.078 µM) 1%; (0.313 µM) 43%; (1 µM) 68%; (1.25 µM) 63%; (5 µM) 88%. “AAGATACCCAGGTTGC (sugars k3 d9 k3 e1, PS)” had a target mRNA inhibition (1 µM) of 69%. The sequence ACTTGAATTCTGTGTC (sugars k3 d10 k3, PS) gave a target mRNA inhibition (1 µM) of 52%. Where the note is “1 µM”, CCAACCCAAGCTACCT (sugars k3 d10 k3, PS) came in with a target mRNA inhibition of 15%. With GAACTGTGTTGCTTGT (sugars k3 d10 k3, PS), the target mRNA inhibition (1 µM) was found to be 77%. In turn, TATGTCCAGGTTGAGA (sugars k3 d10 k3, PS) had a target mRNA inhibition (1 µM) of 64%. ACCTTCCCTGTGTAAA (sugars k3 d10 k3, PS) registered a target mRNA inhibition (1 µM) of 60%. Turning to “TATTGGTAAGTATTCC (sugars k3 d9 k3 e1, PS)”, the target mRNA inhibition (1 µM) was determined as 48%. For the setting “1 µM”, TAATGTATGAGGTCTC (sugars k3 d10 k3, PS) returned a target mRNA inhibition of 51%. As for “ACTAATATTGAGGCAC (sugars k3 d9 k3 e1, PS)”, for the setting “1 µM”, the target mRNA inhibition was 62%.
